According to patent US11666551B2, “Agent for reducing amount of amyloid β protein” (FUJIFILM Toyama Chemical Co., Ltd., priority 2017, dated 2023):

Legend:
Assay type in all cases: in vivo, mild to moderate AD patients
Aβ-40 = assay: Phase II placebo-controlled trial, cerebrospinal fluid biomarker Aβ-40; conditions: for Change in Aβ-40 in CSF at week 52, difference from placebo group: analysis of covariance
From the text: [The procedure below names another target; the source lists this target under the same test.] (§1) Maleate of Compound A was used as the test compound. • Test Example 1 Multicenter randomized double-blind phase II placebo-controlled trial for assessing effectiveness and safety of Compound A in mild to moderate AD patients Subject (selection criteria): Patients were screened in a period from 42 days before treatment assignment to the assignment based on the following selection criteria. • Patients who were probable AD and are 55 years old or older and 85 years old or younger at the time of obtaining consent of screening. • Patients with an MMSE score of 12 to 22 at the time of screening • Patients with a Modified Hachinski Ischemia Scale score of 4 or less • Patients who have been treated with a donepezil hydrochloride or rivastigmine transdermal system for at least 4 months before the baseline and with a stable dose thereof for 3 months before the baseline. • In the case of patients who have received memantine in addition to being treated with a donepezil hydrochloride or rivastigmine transdermal system, patients who have been treated with memantine for at least 4 months before the baseline and with a stable dose thereof for 3 months before the baseline. • Patients whose brain MRI or CT results match AD at the time of screening • Organization of groups: Patients matched (484 patients) were randomly divided into the following 3 groups and the trial was started. • (1) High dose group: 224 mg of a test compound (160 mg in terms of Compound A) was orally administered once a day for 4 weeks and then 448 mg of a test compound (320 mg in terms of Compound A) was orally administered once a day for 48 weeks (158 patients) • (2) Low dose group: 224 mg of a test compound (160 mg in terms of Compound A) was orally administered once a day for 52 weeks (166 patients) • (3) Placebo group: placebo was orally administered once a day for 52 weeks (158 patients) Method of assessment: Cerebrospinal Fluid Biomarker
(§2) Cerebrospinal fluid was collected by lumber puncture from subjects at baseline (within 2 weeks before the first day of administration of investigational drug) and after 52 weeks (within 2 weeks before week 52), and divided into 9-ml aliquots in polyethylene tubes and stored at −80° C. The AP-42 value in the cerebrospinal fluid was measured by sandwich ELIZA which has been designed for measurement of Aβ including 1 amino acid and 42 amino acids.
(§3) Change in cerebrospinal fluid (CSF) biomarkers at week 52 from the baseline was compared by analysis of covariance between a high dose group and a placebo group, and between a low dose group and the placebo group. For models, the baseline of cerebrospinal fluid (CSF) biomarkers was included as a covariate and the significance level was 5%.

Aβ-42 = assay: Phase II placebo-controlled trial, cerebrospinal fluid biomarker Aβ-42; conditions: for Change in Aβ-42 in CSF at week 52, difference from placebo group: analysis of covariance
From the text: as §1, §2, §3

Aβ = assay: Phase II placebo-controlled trial, concentration of Aβ in the cerebrospinal fluid (overall statement); conditions: Compound A groups (high and low dose) vs placebo group
Experimental: […]
Cerebrospinal fluid was collected by lumber puncture from subjects at baseline (within 2 weeks before the first day of administration of investigational drug) and after 52 weeks (within 2 weeks before week 52), and divided into 9-ml aliquots in polyethylene tubes and stored at −80° C. The AP-42 value in the cerebrospinal fluid was measured by sandwich ELIZA which has been designed for measurement of Aβ including 1 amino acid and 42 amino acids. […]

Aβ-38 = assay: Phase II placebo-controlled trial, cerebrospinal fluid biomarker Aβ-38; conditions: for Change in Aβ-38 in CSF at week 52, difference from placebo group: analysis of covariance
From the text: [The procedure below names another target; the source lists this target under the same test.] as §1, §2, §3

[1] = High dose group (160 mg then 320 mg in terms of Compound A, oral, once a day)
[2] = High dose group: 160 mg in terms of Compound A orally once a day for 4 weeks, then 320 mg for 48 weeks, 24 cases
[3] = Low dose group (160 mg in terms of Compound A, oral, once a day, 52 weeks)
[4] = Low dose group: 160 mg in terms of Compound A orally once a day for 52 weeks, 17 cases

OC1CN(CCCOCCc2ccc3sccc3c2)C1 [Compound A, 1-(3-(2-(1-benzothiophen-5-yl)ethoxy)propyl)azetidin-3-ol]
Change in Aβ-40 in CSF at week 52, difference from placebo group (Aβ-40; [1]): 1206.87 pg/mL | Change in concentration of Aβ-40 in CSF at week 52 from the baseline, least square means (Aβ-40; [2]): 290.84 pg/mL | Change in Aβ-40 in CSF at week 52, difference from placebo group (Aβ-40; [3]): 75.71 pg/mL | Change in concentration of Aβ-40 in CSF at week 52 from the baseline, least square means (Aβ-40; [4]): -840.32 pg/mL | Change in Aβ-42 in CSF at week 52, difference from placebo group (Aβ-42; [1]): 32.90 pg/mL | Change in concentration of Aβ-42 in CSF at week 52 from the baseline, least square means (Aβ-42; [2]): 11.55 pg/mL | Change in Aβ-42 in CSF at week 52, difference from placebo group (Aβ-42; [3]): 11.65 pg/mL | Change in concentration of Aβ-42 in CSF at week 52 from the baseline, least square means (Aβ-42; [4]): -9.70 pg/mL | Change in the concentration of Aβ in the cerebrospinal fluid at week 52 from the baseline, compared to the placebo group (Aβ): tended to be increased in a dose dependent manner | Change in Aβ-38 in CSF at week 52, difference from placebo group (Aβ-38; [1]): 525.66 pg/mL | Change in concentration of Aβ-38 in CSF at week 52 from the baseline, least square means (Aβ-38; [2]): 178.64 pg/mL | Change in Aβ-38 in CSF at week 52, difference from placebo group (Aβ-38; [3]): 127.43 pg/mL | Change in concentration of Aβ-38 in CSF at week 52 from the baseline, least square means (Aβ-38; [4]): -219.58 pg/mL
